From US5484940A, “Substituted 3-indolyl-5-pyrazolone compounds” (priority 1994, dated 1996)

Columns and labels:
[1] = test system: β-amyloid peptide production; experiment: Cellular screen for inhibitors of β-amyloid production (ELISA, 293 751 SWE cells); assay type: cell-based, human; settings: 2 h pretreatment + 2 h, normalized for cytotoxicity (MTT), concentration not given
How it was run: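 293 751 SWE cells (K293 stably expressing APP751 Swedish mutant) pretreated 2 h with compound, then fresh compound-containing medium for 2 h more at 37 °C. Secreted β-amyloid in conditioned medium quantified by sandwich ELISA (capture 266 anti-Aβ13-28, labelled 6C6 anti-Aβ1-16) against a standard curve as ng/mL; mean ± SD of ≥6 replicates.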

rat cortical neurons = experiment: Inhibition of toxicity of β-amyloid peptide to rat neuronal cells (alamarBlue); assay type: cell-based; settings: 10 to 20 μM β-amyloid peptide, 2-3 days; on average where more than one duplicate experiment; compound concentration not stated
Experimental: The purpose of this test is to determine the effect of 3-indolyl-5-pyrazolone compounds on the toxicity of β-amyloid peptide to neuronal cells.
Primary rat cortical cultures were established from 18 day rat fetuses. Cortical tissue was dissociated by incubation in a trypsin/EDTA solution (0.05% trypsin+0.53 mM EDTA in HBSS; GIBCO Laboratories, Grand Island, N.Y., USA) for 20 minutes at 37° C. The trypsin was then inactivated by resuspending the cells in serum-containing medium (DMEM/FBS): Dulbecco's Modified Eagles' Medium (DMEM) containing 4.5 g/L glucose, 1 mM sodium pyruvate, 1 mM glutamine, 100 Units/mL penicillin, 100 μg/mL streptomycin, and supplemented with 10% heat-inactivated fetal bovine serum (GIBCO Laboratories, Grand Island, N.Y., USA). Cells were then pelleted by centrifugation and resuspended in a chemically-defined medium (DMEM/B27: DMEM containing B27 supplement; GIBCO Laboratories, Grand Island, N.Y., USA) in place of FBS. Polyethyleneimine (PEI; Sigma Chemical Company, St. Louis, Mo., USA)-coated 6.4 mm (96-well) dishes were timed once with DMEM/FBS, and then seeded at 0.75 to 1.25×10^5 cells per well in 0.1 mL DMEM/B27. Cultures were maintained in a H2 O-saturated incubator with an atmosphere of 90% air/10% CO2 at 37° C. Cell viability was visually assessed by phase contrast microscopy and quantified by measuring the reduction of alamarBlue™ (Alamar biosciences, Inc., Sacramento, Calif., USA) as described below. Serum replacement with B27 supplement yields nearly pure neuronal cultures as judged by immunocytochemistry for glial fibrillary acidic protein and neuron-specific enolase (Brewer, et al.^20)
β-amyloid peptide stock solutions were prepared as 1 mM stocks in sterile, doubly distilled water immediately prior to addition to cultures. Rat cortical neurons were exposed to β-amyloid peptide by removing the culture medium and replacing it with DMEM/N2 (GIBCO Laboratories,Grand Island, N.Y., USA) containing 10 to 20 μM β-amyloid peptide. Human cortical neurons were exposed to test compound plus β-amyloid peptide by removing the culture medium and replacing it with MEM containing 50 μM β-amyloid peptide. Cultures were maintained for 2-3 days before neuronal survival was quantified using alamarBlue™.
The alamarBlue™ assay incorporates a fluorometric/colorimetric metabolic indicator (Alamar Biosciences, Inc. Sacramento, Calif., USA). Viable cells convert alamarBlue™ from an oxidized (non-fluorescent, blue) form to a reduced (fluorescent, red) form. Assays were preformed by replacing the culture media with a 10% alamarBlue™ solution in DMEM (rat cortical cultures) or MEM (human cortical cultures).

SMILES: COc1ccc2c(c1)c(CC1=NN(c3cccc(C(F)(F)F)c3)C(=O)C1)c(C)n2C(=O)c1ccc(Cl)cc1 [Example 25, 3-[1-(4-chlorobenzoyl)-5-methoxy-2-methyl-3-indolylmethyl]-1-(3-trifluoromethylphenyl)-5-pyrazolone]
- reduction of β-amyloid peptide production as compared to control [1]: at least 20%
- inhibition of the toxicity of β-amyloid peptide to rat neuronal cells (rat cortical neurons): at least 10%
